In patent publication US20220324865A1 (Bayer Aktiengesellschaft, priority 2018, published 2022):

target: T1, human EP3 receptor (Homo sapiens, UniProt P43115); test: Cellular in vitro assay for determining EP3 receptor activity (human EP3 cell line, sulprostone-stimulated calcium luminescence); type: cell-based; settings: CHO cells expressing human EP3 and mitochondrial Clytin; antagonist mode, sulprostone at EC50; read-out: EP3 CHO mtCLY ANTAG IC50
T1 construct: expressed in transfected cells; host or cells: CHO K1 (Chinese Hamster Ovary), stably co-transfected with Galpha16 and mitochondrial clytin
T1 sequence (P43115 1-390): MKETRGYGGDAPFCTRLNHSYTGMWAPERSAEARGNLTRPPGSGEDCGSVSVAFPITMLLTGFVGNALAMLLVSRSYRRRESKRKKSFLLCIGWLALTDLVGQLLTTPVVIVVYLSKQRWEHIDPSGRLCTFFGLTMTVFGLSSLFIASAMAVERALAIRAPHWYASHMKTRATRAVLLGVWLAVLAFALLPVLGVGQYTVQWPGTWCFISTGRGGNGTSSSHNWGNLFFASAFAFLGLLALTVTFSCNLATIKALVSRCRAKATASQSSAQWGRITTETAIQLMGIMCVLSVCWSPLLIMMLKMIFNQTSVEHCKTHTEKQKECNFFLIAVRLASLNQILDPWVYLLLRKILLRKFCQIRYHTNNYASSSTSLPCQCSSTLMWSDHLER
How it was run: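 Antagonist activity was measured as inhibition of the luminescent calcium signal elicited by EC50 sulprostone, following 10 min compound pretreatment. The cell line was recombinant CHO K1 co-expressing human EP3, Gα16 and the photoprotein Clytin, reconstituted with coelenterazine.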

Structure (SMILES) | IC50 [nM]
CC[C@@H](C)NC(=O)c1nn2cc(-c3ccc(C)c(Cl)c3)[nH]c(=O)c2c1C(F)(F)F [Example 1-152, N-[(2R)-Butan-2-yl]-6-(3-chloro-4-methylphenyl)-4-oxo-3-(trifluoromethyl)-4,5-dihydropyrazolo-[1,5-a]pyrazine-2-carboxamide] | 2.1
Cc1ccc(-c2cn3nc(C(=O)NC4(c5ccc(F)cc5)CN(C)C4)c(C(F)(F)F)c3c(=O)[nH]2)cc1Cl [Example 1-153, 6-(3-Chloro-4-methylphenyl)-N-[3-(4-fluorophenyl)-1-methylazetidin-3-yl]-4-oxo-3-(trifluoromethyl)-4,5-dihydropyrazolo[1,5-a]pyrazine-2-carboxamide] | 5.4
Cc1ccc(-c2cn3nc(C(=O)N[C@H](C)CO)c(C4CC4)c3c(=O)[nH]2)cc1C [Example 1-154, 3-Cyclopropyl-6-(3,4-dimethylphenyl)-N-[(2R)-1-hydroxpropan-2-yl]-4-oxo-4,5-dihydropyrazolo-[1,5-a]pyrazine-2-carboxamide] | 2.6
Cc1ccc(-c2cn3nc(C(=O)N[C@@H](C)CO)c(C4CC4)c3c(=O)[nH]2)cc1C [Example 1-155, 3-Cyclopropyl-6-(3,4-dimethylphenyl)-N-[(2S)-1-hydroxpropan-2-yl]-4-oxo-4,5-dihydropyrazolo-[1,5-a]pyrazine-2-carboxamide] | 1.5
COc1ccc(C2(NC(=O)c3cc4c(=O)[nH]c(-c5ccc(C)c(C)c5)cn4n3)CN(C(C)=O)C2)cc1 [Example 1-156, N-[1-Acetyl-3-(4-methoxyphenyl)azetidin-3-yl]-6-(3,4-dimethylphenyl)-4-oxo-5H-pyrazolo[1,5-a]-pyrazine-2-carboxamide] | 3.05
Cc1ccc(-c2cn3nc(C(=O)N[C@@H](c4ccc(F)cc4)C(C)(C)O)c(C4CC4)c3c(=O)[nH]2)cc1F [Example 1-158] | 0.983
Cc1ccc(-c2cn3nc(C(=O)N[C@@H](c4ccc(F)cc4)C(C)(C)O)c(C)c3c(=O)[nH]2)cc1F [Example 1-162, 6-(3-Fluoro-4-methylphenyl)-N-[(1S)-1-(4-fluorophenyl)-2-hydroxy-2-methylpropyl]-3-methyl-4-oxo-4,5-dihydropyrazolo[1,5-a]pyrazine-2-carboxamide] | 0.89
Cc1ccc(-c2cn3nc(C(=O)N[C@@H](c4ccc(F)cc4)C(C)(C)O)c(C)c3c(=O)[nH]2)c(F)c1F [Example 1-163, 6-(2,3-Difluoro-4-methylphenyl)-N-[(1S)-1-(4-fluorophenyl)-2-hydroxy-2-methylpropyl]-3-methyl-4-oxo-4,5-dihydropyrazolo[1,5-a]pyrazine-2-carboxamide] | 7.8
Cc1ccc(-c2cn3nc(C(=O)N[C@@H](c4ccc(F)cc4)C(C)(C)O)c(C)c3c(=O)[nH]2)c(F)c1C [Example 1-164, 6-(2-Fluoro-3,4-dimethylphenyl)-N-[(15)-1-(4-fluorophenyl)-2-hydroxy-2-methylpropyl]-3-methyl-4-oxo-4,5-dihydropyrazolo[1,5-a]pyrazine-2-carboxamide] | 2.9
Cc1cc(-c2cn3nc(C(=O)N[C@@H](c4ccc(F)cc4)C(C)(C)O)c(C(F)(F)F)c3c(=O)[nH]2)ccc1Cl [Example 1-166, 6-(4-Chloro-3-methylphenyl)-N-[(1S)-1-(4-fluorophenyl)-2-hydroxy-2-methylpropyl]-4-oxo-3-(trifluoromethyl)-4,5-dihydropyrazolo[1,5-a]pyrazine-2-carboxamide] | 3.15
CC(C)(O)[C@@H](NC(=O)c1nn2cc(-c3ccc(Cl)c(F)c3)[nH]c(=O)c2c1C1CC1)c1ccc(F)cc1 [Example 1-167, 6-(4-Chloro-3-fluorophenyl)-3-cyclopropyl-N-[(15)-1-(4-fluorophenyl)-2-hydroxy-2-methylpropyl]-4-oxo-4,5-dihydropyrazolo[1,5-a]pyrazine-2-carboxamide] | 2.2
CC(C)(O)[C@@H](NC(=O)c1nn2cc(-c3ccc(Cl)c(Cl)c3)[nH]c(=O)c2c1C1CC1)c1ccc(F)cc1 [Example 1-168, 3-Cyclopropyl-6-(3,4-dichlorophenyl)-N-[(1S)-1-(4-fluorophenyl)-2-hydroxy-2-methylpropyl]-4-oxo-4,5-dihydropyrazolo[1,5-a]pyrazine-2-carboxamide] | 1.9
CN1CC(NC(=O)c2nn3cc(-c4ccc(Cl)c(F)c4)[nH]c(=O)c3c2C2CC2)(c2ccc(F)cc2)C1 [Example 1-169, 6-(4-Chloro-3-fluorophenyl)-3-cyclopropyl-N-[3-(4-fluorophenyl)-1-methylazetidin-3-yl]-4-oxo-4,5-dihydropyrazolo[1,5-a]pyrazine-2-carboxamide] | 3.35
CN1CC(NC(=O)c2nn3cc(-c4ccc(Cl)c(Cl)c4)[nH]c(=O)c3c2C2CC2)(c2ccc(F)cc2)C1 [Example 1-170, 3-Cyclopropyl-6-(3,4-dichlorophenyl)-N-[3-(4-fluorophenyl)-1-methylazetidin-3-yl]-4-oxo-4,5-dihydropyrazolo[1,5-a]pyrazine-2-carboxamide] | 2.5
Cc1cc(-c2cn3nc(C(=O)N[C@@H](c4ccc(F)cc4)C(F)(F)CO)c(C(F)(F)F)c3c(=O)[nH]2)ccc1Cl [Example 1-171, 6-(4-Chloro-3-methylphenyl)-N-[(1S)-2,2-difluoro-1-(4-fluorophenyl)-3-hydroxpropyl]-4-oxo-3-(trifluoromethyl)-4,5-dihydropyrazolo[1,5-a]pyrazine-2-carboxamide] | 1.03

Second part, the compound after the results:

IC50 [nM] | Structure (SMILES)
0.86 | Cc1cc(-c2cn3nc(C(=O)N[C@@H](c4ccc(F)cc4)C(F)(F)CO)c(C4CC4)c3c(=O)[nH]2)ccc1Cl [Example 1-172, 6-(4-Chloro-3-methylphenyl)-3-cyclopropyl-N-[(1S)-2,2-difluoro-1-(4-fluorophenyl)-3-hydroxpropyl]-4-oxo-4,5-dihydropyrazolo[1,5-a]pyrazine-2-carboxamide]
0.73 | Cc1cc(-c2cn3nc(C(=O)N[C@@H](c4ccc(F)cc4)C(C)(C)O)c(C4CC4)c3c(=O)[nH]2)ccc1Cl [Example 1-173, 6-(4-Chloro-3-methylphenyl)-3-cyclopropyl-N-[(1S)-1-(4-fluorophenyl)-2-hydroxy-2-methylpropyl]-4-oxo-4,5-dihydropyrazolo[1,5-a]pyrazine-2-carboxamide]
5 | Cc1ccc(-c2cn3nc(C(=O)NC4(c5ccc(F)cc5)CNC4)c(C(F)(F)F)c3c(=O)[nH]2)cc1C [Example 1-175, 6-(3,4-Dimethylphenyl)-N-[3-(4-fluorophenyl)azetidin-3-yl]-4-oxo-3-(trifluoromethyl)-4,5-dihydropyrazolo[1,5-a]pyrazine-2-carboxamide-hydrogen chloride (1/1)]
1.67 | CCN1CC(NC(=O)c2nn3cc(-c4ccc(C)c(C)c4)[nH]c(=O)c3c2C(F)(F)F)(c2ccc(F)cc2)C1 [Example 1-176, 6-(3,4-Dimethylphenyl)-N-[1-ethyl-3-(4-fluorophenyl)azetidin-3-yl]-4-oxo-3-(trifluoromethyl)-4,5-dihydropyrazolo[1,5-a]pyrazine-2-carboxamide]
5 | O=C(NC1(c2ccc(F)cc2)CN(C(CF)CF)C1)c1nn2cc(-c3ccc4ccccc4c3)[nH]c(=O)c2c1C(F)(F)F [Example 1-177, N-[1-(1,3-Difluoropropan-2-yl)-3-(4-fluorophenyl)azetidin-3-yl]-6-(naphthalen-2-yl)-4-oxo-3-(trifluoro-methyl)-4,5-dihydropyrazolo[1,5-a]pyrazine-2-carboxamide]
2.07 | CC(NC(=O)c1cc2c(=O)[nH]c(-c3ccc4ccccc4c3)cn2n1)c1ccccc1 (stereo not drawn) [Example 2-1, 6-(2-Naphthyl)-4-oxo-N-(1-phenylethyl)-5H-pyrazolo[1,5-a]pyrazine-2-carboxamide]
1.18 | COc1ccc(C(CCO)NC(=O)c2cc3c(=O)[nH]c(-c4ccc5ccccc5c4)cn3n2)cc1 (stereo not drawn) [Example 2-2, N-[3-Hydroxy-1-(4-methoxyphenyl)propyl]-6-(2-naphthyl)-4-oxo-4,5-dihydropyrazolo[1,5-a]pyrazine-2-carboxamide]
1.65 | COc1ccc(C(C)NC(=O)c2cc3c(=O)[nH]c(-c4ccc5ccccc5c4)cn3n2)cc1 (stereo not drawn) [Example 2-3, N-[1-(4-Methoxyphenyl)ethyl]-6-(2-naphthyl)-4-oxo-4,5-dihydropyrazolo[1,5-a]pyrazine-2-carboxamide]
1.07 | O=C(NC(c1ccccc1)C(F)F)c1cc2c(=O)[nH]c(-c3ccc4ccccc4c3)cn2n1 (stereo not drawn) [Example 2-4, N-(2,2-Difluoro-1-phenylethyl)-6-(2-naphthyl)-4-oxo-4,5-dihydropyrazolo[1,5-a]pyrazine-2-carboxamide]
4 | Cc1nn(C)cc1C(C)NC(=O)c1cc2c(=O)[nH]c(-c3ccc4ccccc4c3)cn2n1 (stereo not drawn) [Example 2-5, N-[1-(1,3-Dimethyl-1H-pyrazol-4-yl)ethyl]-6-(2-naphthyl)-4-oxo-4,5-dihydropyrazolo[1,5-a]pyrazine-2-carboxamide]
8.75 | C[C@H](NC(=O)c1cc2c(=O)[nH]c(-c3ccc4ccccc4c3)cn2n1)c1cccc2ccccc12 [Example 2-6]
4.7 | O=C(NCCc1ccc(F)cc1)c1cc2c(=O)[nH]c(-c3ccc4ccccc4c3)cn2n1 [Example 2-7, N-[2-(4-Fluorophenyl)ethyl]-6-(2-naphthyl)-4-oxo-4,5-dihydropyrazolo[1,5-a]pyrazine-2-carboxamide]
